Patent US11759437B2, “Preventive and therapeutic approach for aberrant cell differentiation and ISR-associated diseases” (The University of Hong Kong, priority 2016, dated 2023)

How the values were obtained:
prion-infected mice = settings: cited from earlier work
[1] = system: congenital skeletal dysplasias; settings: cited from earlier work
13del mice = format: in vivo
wild-type mice = assay: ISRIB treatment of wild-type littermates; format: in vivo, mouse
Experimental: The potential of ISRIB to modify the chondrodysplasia phenotype was tested by treating 13del and wild-type littermates with ISRIB or vehicle twice daily by intraperitoneal injection from E13.5 (onset of expression of 13del transgene) to postnatal day 20 (p20) (FIG. 8A).
ISRIB (SML0843, Sigma) was dissolved in DMSO to make a 5 mg/ml stock and stored at 4-degree. Animals were intraperitoneally injected with ISRIB ((103, 104) (2.5 mg/kg, diluted in 0.9% saline) or vehicle (5% DMSO in saline) from E13.5 till p20 stage. The animals were collected at p10 and p20 stages for further analysis.

mice = settings: cited from earlier work
[2] = system: Mouse models of chondrodysplasia; settings: cited from earlier work
Fgf21 = Fgf21 expression after ER stress inducer tunicamycin in fibroblasts and ATDC5 cells; format: cell-based, mouse; settings: NIH3T3 and MEF cells and ATDC5 cells, tunicamycin treatment
Experimental: FGF21 is a hormone with roles in glucose and lipid metabolism (74) and plays an survival role in the response to diverse stressful conditions, such as amino acid deprivation, mitochondrial stress and ER stress associated with diseases such as diabetes, cardiovascular disease (75-77).
Quantitative PCR was performed using SYBR-Green master mixture according to the manufacturer's instruction (Takara). Appropriate amounts of cDNA (or DNA) and primers were mixed with distilled water up to 10 μl and combined with equal amount of SYBR-Green master mixture. The reaction was run on the StepOne Real Time PCR system (Applied Biosystems, A&B). The Ct (cycle threshold) is defined as the cycle number required for the fluorescent signal to cross the threshold. The relative expression levels of target genes are calculated by normalizing to the expression level of GAPDH using delta-delta-Ct (Relative expression level=2^−(Cttarget−CtGapdh)). Melting curve was also measured to detect the specificity of the primers.

[3] = 13del mice, after 20-days ISRIB treatment

Which “effect of restoring protein synthesis through PERK inhibition” value (prion-infected mice) does the source give for `Cn1cc(-c2ccc3c(c2)CCN3C(=O)Cc2cccc(C(F)(F)F)c2)c2c(N)ncnc21` [GSK2606414] here?
The value was “neuroprotective”.

What about the side effects (prion-infected mice) of the same compound?
The side effects was “weight loss and pancreatic toxicity”.

With “Growth hormone: Growth hormone (GH) therapy used to treat dwarfism” as the compound, how does the “effect in cases with severe spinal deformities” value ([1]; in vivo) read?
Its value is “worsened kyphosis and lordosis”.

And the “efficacy for height gain” value ([1]; most congenital skeletal dysplasias)?
The value was “ineffective”.

For `O=C(COc1ccc(Cl)cc1)N[C@H]1CC[C@H](NC(=O)COc2ccc(Cl)cc2)CC1` [ISRIB], which “amount of ATF4 and CHOP protein” value (13del mice; 13del HZ, p10) is on record?
Its value is “reduced”.

What about the “transcripts and protein level of downstream targets (ATF3, ERO1l and FGF21)” value (13del mice; 13del HZ, p10) of the same compound?
The value was “down-regulation”.

What about the “Atf3+ cells in L3-L6 NP, growth plates or endplates” value (13del mice; 13del lumbar IVD, after ISRIB treatment) of the same compound?
The value was “no Atf3^+ cell can be detected”.

What about the “ectopic NP expression of Opn” value (13del mice; 13del lumbar NP, 20-days treatment) of the same compound?
The value was “greatly reduced”.

What about the “number of reprogrammed chondrocytes in the growth plates and endplates” value (13del mice; 13del mice) of the same compound?
The value was “reduced”.

What about the “chondrocyte-like cells present in iAF” value (13del mice; [3]) of the same compound?
The value was “fewer”.

What about the “regularity of inner annulus fibrosus (iAF)” value (13del mice; [3]) of the same compound?
The value was “more regular”.

What about the “Bip transcripts in HZ” value (13del mice; 13del mice, p10, in situ hybridization) of the same compound?
The value was “not affected”.

What about the “HZ expansion in tail intervertebral disc growth plates” value (13del mice; 13del mice, p10 and p20) of the same compound?
Its value is “reduced”.

And the “HZ expansion in the limb growth plates” value (13del mice; 13del mice, p10 and p20)?
The value was “greatly reduced”.

And the “number of SOX9+, Col2a1+ and Ppr+ cells in the HZ” value (13del mice; 13del mice, p10 and p20)?
Its value is “diminished”.

And the “number of Sox9+ and Col2a1+ premature cells in tail intervertebral disc growth plates” value (13del mice; 13del mice, p10 and p20)?
The value was “decreased”.

And the “IVD abnormalities in 13del lumbar spine (endplate expansion, iAF structure)” value (13del mice; ISRIB 2.5 mg/kg)?
Its value is “eased”.

And the “overall adverse effect in treated mice” value (13del mice; ISRIB 2.5 mg/kg i.p., E13.5 to p20)?
Its value is “without any obvious adverse effect”.

What about the “apoptosis in 13del HC” value (13del mice; TUNEL) of the same compound?
Its value is “did not induce apoptosis”.

What about the “dwarfism of 13del mice (body length)” value (13del mice; new born to juvenile stages, ISRIB 2.5 mg/kg i.p. twice daily, E13.5 to p20) of the same compound?
The value was “markedly reduced”.

What about the “skeletal deformities, radiographic analyses (length of tibia/femur and spine, genu varum, pelvic bone orientation, coxa vara)” value (13del mice; p20, ISRIB 2.5 mg/kg i.p.) of the same compound?
Its value is “ameliorated”.

What about the “effect on the limb growth plates in wild-type mice” value (wild-type mice; histology, p10) of the same compound?
The value was “no observable effect”.

What about the “adverse effects on weight gain or body growth” value (wild-type mice; wild-type mice, ISRIB 2.5 mg/kg i.p. twice daily, E13.5 to p20) of the same compound?
Its value is “no adverse effects”.

And the neurotrophic effects (mice)?
Its neurotrophic effects is “significant neurotrophic effects”.

What about the overall toxicity (mice) of the same compound?
The overall toxicity was “no overall toxicity”.

What about the pharmacokinetic properties (mice) of the same compound?
Its pharmacokinetic properties is “acceptable”.

Which efficacy in chondrodysplasia [2] does the source give for `O=C(O)CCCc1ccccc1` [phenylbutyric acid] here?
Its efficacy in chondrodysplasia is “ineffective”.

With tunicamycin as the compound, how does the “increase of Fgf21 expression” value (Fgf21) read?
The value was > 100 fold.
